Reference: the supplement of paper PMC9663587

Key:
[1] = compound: CN(C)C/C=C/C(=O)Nc1ccc(C(=O)Nc2cccc(Nc3ncc(Cl)c(-c4c[nH]c5ccccc45)n3)c2)cc1 [THZ1]; experiment: GR value, 72 h; higher = faster growth (1 = untreated, <0 = killing);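 note: breast cancer and non-malignant breast epithelial lines, nine half-log doses, viable cells counted by Hoechst and LIVE/DEAD dye imaging versus time-zero plates and DMSO controls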
[2] = compound: CCOc1cc2ncc(C#N)c(Nc3ccc(OCc4ccccn4)c(Cl)c3)c2cc1NC(=O)/C=C/CN(C)C [Neratinib/HKI272]; experiment: as above
[3] = compound: CC(=O)c1c(C)c2cnc(Nc3ccc(N4CCN(CCOCCOCCOCCNC(=O)COc5cccc6c5C(=O)N(C5CCC(=O)NC5=O)C6=O)CC4)cn3)nc2n(C2CCCC2)c1=O [BSJ-03-123]; experiment: as above
[4] = compound: CC(=O)c1c(C)c2cnc(Nc3ccc(N4CCNCC4)cn3)nc2n(C2CCCC2)c1=O; experiment: as above
[5] = compound: CCc1cnn2c(NCc3ccc[n+]([O-])c3)cc(N3CCCC[C@H]3CCO)nc12; experiment: as above
[6] = compound: CCN1CCN(Cc2ccc(Nc3ncc(F)c(-c4cc(F)c5nc(C)n(C(C)C)c5c4)n3)nc2)CC1; experiment: as above
[7] = compound: T1, CN(C)C(=O)c1cc2cnc(Nc3ccc(N4CCNCC4)cn3)nc2n1C1CCCC1 [LEE011/Ribociclib]; experiment: as above
[8] = compound: T2, CN1CC[C@H](c2c(O)cc(O)c3c(=O)cc(-c4ccccc4Cl)oc23)[C@H](O)C1 [Flavopiridol]; experiment: as above
[9] = compound: CC(=O)c1c(C)c2cnc(Nc3ccc(N4CCNCC4)cn3)nc2n(C2CCCC2)c1=O; experiment: increase in dead-cell fraction, 72 h; higher = more death;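 note: breast cancer cell lines in 384-well plates, stained with Hoechst plus LIVE/DEAD far red dye and imaged, cells above an LDR intensity threshold counted dead, Hoechst-negative corpses included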
[10] = compound: CCN1CCN(Cc2ccc(Nc3ncc(F)c(-c4cc(F)c5nc(C)n(C(C)C)c5c4)n3)nc2)CC1; experiment: as above
[11] = compound: T1, LEE011/Ribociclib; experiment: as above
[12] = compound: T2, Flavopiridol; experiment: as above

## HS578T
[1]; 0.0001 µM
  GR value: 0.977 GR
[1]; 0.0003162 µM
  GR value: 1.03 GR
[1]; 0.001 µM
  GR value: 0.99 GR
[1]; 0.003162 µM
  GR value: 1.03 GR
[1]; 0.01 µM
  GR value: 0.784 GR
[1]; 0.03162 µM
  GR value: 0.125 GR
[1]; 0.1 µM
  GR value: -0.199 GR
[1]; 0.3162 µM
  GR value: -0.251 GR
[1]; 1 µM
  GR value: -0.371 GR
[2]; 0.0003162 µM
  GR value: 1.06 GR
[2]; 0.001 µM
  GR value: 1 GR
[2]; 0.003162 µM
  GR value: 1.05 GR
[2]; 0.01 µM
  GR value: 0.98 GR
[2]; 0.03162 µM
  GR value: 1 GR
[2]; 0.1 µM
  GR value: 0.888 GR
[2]; 0.3162 µM
  GR value: 0.613 GR
[2]; 1 µM
  GR value: 0.427 GR
[2]; 3.162 µM
  GR value: -0.155 GR
[3]; 0.001 µM
  GR value: 0.971 GR
[3]; 0.003162 µM
  GR value: 0.905 GR
[3]; 0.01 µM
  GR value: 0.883 GR
[3]; 0.03162 µM
  GR value: 0.844 GR
[3]; 0.1 µM
  GR value: 0.79 GR
[3]; 0.3162 µM
  GR value: 0.74 GR
[3]; 1 µM
  GR value: 0.626 GR
[3]; 3.162 µM
  GR value: 0.521 GR
[3]; 10 µM
  GR value: -0.29 GR
[4]; 0.0003162 µM
  GR value: 1.07 GR
[4]; 0.001 µM
  GR value: 0.988 GR
[4]; 0.003162 µM
  GR value: 0.928 GR
[4]; 0.01 µM
  GR value: 0.764 GR
[4]; 0.03162 µM
  GR value: 0.666 GR
[4]; 0.1 µM
  GR value: 0.569 GR
[4]; 0.3162 µM
  GR value: 0.481 GR
[4]; 1 µM
  GR value: 0.423 GR
[4]; 3.162 µM
  GR value: 0.302 GR
[5]; 0.0001 µM
  GR value: 0.955 GR
[5]; 0.0003162 µM
  GR value: 1.04 GR
[5]; 0.001 µM
  GR value: 0.986 GR
[5]; 0.003162 µM
  GR value: 1.02 GR
[5]; 0.01 µM
  GR value: 0.313 GR
[5]; 0.03162 µM
  GR value: -0.21 GR
[5]; 0.1 µM
  GR value: -0.191 GR
[5]; 0.3162 µM
  GR value: -0.216 GR
[5]; 1 µM
  GR value: -0.237 GR
[6]; 0.001 µM
  GR value: 0.969 GR
[6]; 0.003162 µM
  GR value: 0.776 GR
[6]; 0.01 µM
  GR value: 0.699 GR
[6]; 0.03162 µM
  GR value: 0.521 GR
[6]; 0.1 µM
  GR value: 0.442 GR
[6]; 0.3162 µM
  GR value: 0.268 GR
[6]; 1 µM
  GR value: 0.217 GR
[6]; 3.162 µM
  GR value: -0.238 GR
[6]; 10 µM
  GR value: -0.576 GR
[7]; 0.001 µM
  GR value: 0.825 GR
[7]; 0.003162 µM
  GR value: 0.861 GR
[7]; 0.01 µM
  GR value: 0.73 GR
[7]; 0.03162 µM
  GR value: 0.672 GR
[7]; 0.1 µM
  GR value: 0.63 GR
[7]; 0.3162 µM
  GR value: 0.621 GR
[7]; 1 µM
  GR value: 0.591 GR
[7]; 3.162 µM
  GR value: 0.513 GR
[7]; 10 µM
  GR value: 0.373 GR
[8]; 0.0001 µM
  GR value: 1 GR
[8]; 0.0003162 µM
  GR value: 1.01 GR
[8]; 0.001 µM
  GR value: 0.977 GR
[8]; 0.003162 µM
  GR value: 0.969 GR
[8]; 0.01 µM
  GR value: 0.95 GR
[8]; 0.03162 µM
  GR value: 0.923 GR
[8]; 0.1 µM
  GR value: 0.711 GR
[8]; 0.3162 µM
  GR value: 0.107 GR
[8]; 1 µM
  GR value: -0.265 GR
[9]; 0.0003162 µM
  increase in dead-cell fraction: -0.0068
[9]; 0.001 µM
  increase in dead-cell fraction: 0.0083
[9]; 0.003162 µM
  increase in dead-cell fraction: 0.0012
[9]; 0.01 µM
  increase in dead-cell fraction: 0.0138
[9]; 0.03162 µM
  increase in dead-cell fraction: 0.0151
[9]; 0.1 µM
  increase in dead-cell fraction: 0.0427
[9]; 0.3162 µM
  increase in dead-cell fraction: 0.052
[9]; 1 µM
  increase in dead-cell fraction: 0.0736
[9]; 3.162 µM
  increase in dead-cell fraction: 0.116
[10]; 0.001 µM
  increase in dead-cell fraction: 0.0038
[10]; 0.003162 µM
  increase in dead-cell fraction: 0.0096
[10]; 0.01 µM
  increase in dead-cell fraction: 0.0242
[10]; 0.03162 µM
  increase in dead-cell fraction: 0.0401
[10]; 0.1 µM
  increase in dead-cell fraction: 0.0754
[10]; 0.3162 µM
  increase in dead-cell fraction: 0.0958
[10]; 1 µM
  increase in dead-cell fraction: 0.171
[10]; 3.162 µM
  increase in dead-cell fraction: 0.511
[10]; 10 µM
  increase in dead-cell fraction: 0.844
[11]; 0.001 µM
  increase in dead-cell fraction: 0.0899
[11]; 0.003162 µM
  increase in dead-cell fraction: 0.0789
[11]; 0.01 µM
  increase in dead-cell fraction: 0.105
[11]; 0.03162 µM
  increase in dead-cell fraction: 0.0986
[11]; 0.1 µM
  increase in dead-cell fraction: 0.196
[11]; 0.3162 µM
  increase in dead-cell fraction: 0.2
[11]; 1 µM
  increase in dead-cell fraction: 0.245
[11]; 3.162 µM
  increase in dead-cell fraction: 0.248
[11]; 10 µM
  increase in dead-cell fraction: 0.243
[12]; 0.0001 µM
  increase in dead-cell fraction: 0.0048
[12]; 0.0003162 µM
  increase in dead-cell fraction: -0.0091
[12]; 0.001 µM
  increase in dead-cell fraction: 0.0178
[12]; 0.003162 µM
  increase in dead-cell fraction: -0.0177
[12]; 0.01 µM
  increase in dead-cell fraction: 0.0333
[12]; 0.03162 µM
  increase in dead-cell fraction: -0.0109
[12]; 0.1 µM
  increase in dead-cell fraction: 0.0094
[12]; 0.3162 µM
  increase in dead-cell fraction: 0.0312
[12]; 1 µM
  increase in dead-cell fraction: 0.288
